Experimental data from patent publication US9783537B2, “3-(4-ethylnylphenyl) pyridopyrimidinone compounds and process for preparation thereof useful as potential anticancer agents” (Council of Scientific & Industrial Research, priority 2013, dated 2017).
Like-named read-outs stand apart in the source and are kept apart here.

What was measured:
CCRF-CEM = experiment: SRB 48 h growth assay, Leukemia CCRF-CEM; type: cell-based, human
K-562 = experiment: SRB 48 h growth assay, Leukemia K-562; type: cell-based, human
RPMI-8226 = experiment: SRB 48 h growth assay, Leukemia RPMI-8226; type: cell-based, human; conditions: RPMI-8226, Leukemia
NCI-H226 = experiment: SRB 48 h growth assay, Non-small Cell Lung NCI-H226; type: cell-based, human
NCI-H23 = experiment: SRB 48 h growth assay, Non-small Cell Lung NCI-H23; type: cell-based, human
HCT-116 = experiment: SRB 48 h growth assay, Colon HCT-116; type: cell-based, human; conditions: HCT-116, Colon
KM12 = experiment: SRB 48 h growth assay, Colon KM12; type: cell-based, human
SW-620 = experiment: SRB 48 h growth assay, Colon SW-620; type: cell-based, human; conditions: SW-620, Colon
LOX IMVI = experiment: SRB 48 h growth assay, Melanoma LOX IMVI; type: cell-based, human
M14 = experiment: SRB 48 h growth assay, Melanoma M14; type: cell-based, human
MDA-MB-435 = experiment: SRB 48 h growth assay, Melanoma MDA-MB-435; type: cell-based, human; conditions: MDA-MB-435, Melanoma
SK-MEL-5 = experiment: SRB 48 h growth assay, Melanoma SK-MEL-5; type: cell-based, human; conditions: SK-MEL-5, Melanoma
UACC-62 = experiment: SRB 48 h growth assay, Melanoma UACC-62; type: cell-based, human; conditions: UACC-62, Melanoma
OVCAR-3 = experiment: SRB 48 h growth assay, Ovarian OVCAR-3; type: cell-based, human; conditions: OVCAR-3, Ovarian
OVCAR-8 = experiment: SRB 48 h growth assay, Ovarian OVCAR-8; type: cell-based, human; conditions: OVCAR-8, Ovarian
786-0 = experiment: SRB 48 h growth assay, Renal 786-0; type: cell-based, human; conditions: 786-0, Renal
DU-145 = experiment: SRB 48 h growth assay, Prostate DU-145; type: cell-based, human; conditions: DU-145, Prostate
MCF7 = experiment: SRB 48 h growth assay, Breast MCF7; type: cell-based, human
HS578T = experiment: SRB 48 h growth assay, Breast HS578T; type: cell-based, human
BT-549 = experiment: SRB 48 h growth assay, Breast BT-549; type: cell-based, human; conditions: BT-549, Breast
MDA-MB-468 = experiment: SRB 48 h growth assay, Breast MDA-MB-468; type: cell-based, human; conditions: MDA-MB-468, Breast
[1] = tested on: six leukemia cancer cell lines (CCRF-CEM, HL-60, K-562, MOLT-4, SR and RPMI-8226); experiment: in vitro anticancer activity, leukemia panel; type: cell-based; conditions: Homo sapiens, exposure at least 48 h, read-out: GI50, range over panel
[2] = tested on: seven colon cancer cell line (COLO 205, HCC-2998, HCT-116, HCT-15, HT29, KM12 and SW-620); experiment: in vitro anticancer activity, colon panel; type: cell-based; conditions: Homo sapiens; seven colon cancer cell lines, exposure at least 48 h; read-out: GI50, range over panel
[3] = tested on: six CNS cancer cell line (SF-268, SF-295, SF-539, SNB-19, SNB-75 and U251); experiment: in vitro anticancer activity, CNS panel; type: cell-based; conditions: Homo sapiens; six CNS cancer cell lines, exposure at least 48 h; read-out: GI50, range over panel
[4] = in vitro anticancer activity, melanoma panel; type: cell-based; conditions: Homo sapiens; nine melanoma cell lines, exposure at least 48 h; read-out: GI50, range over panel
[5] = tested on: two prostate cancer cell line (PC-3, DU-145); experiment: in vitro anticancer activity, prostate panel; type: cell-based; conditions: Homo sapiens; two prostate cancer cell lines, exposure at least 48 h; read-out: GI50, range over panel
[6] = Homo sapiens, read-out: Growth Inhibition GI50
[7] = Homo sapiens, read-out: Log10 GI50 (converted)
[8] = Homo sapiens, read-out: Log10 LC50 (converted)

C#Cc1ccc(-n2c(/C=C/c3ccc(C(F)(F)F)cc3)nc3ncccc3c2=O)cc1 [4c, (E)-3-(4-Ethynylphenyl)-2-(4-(trifluoromethyl)styryl)pyrido[2,3-d]pyrimidin-4(3H)-one]
Log10 TGI50 (CCRF-CEM): >−4.00
CC50 (CCRF-CEM; Homo sapiens, CCKF-CEM, read-out: Log10 LC50 (converted)): > 100 µM
GI50 (CCRF-CEM; [6]): 1.95 µM
GI50 (CCRF-CEM; [7]): 1.95 µM
GI50 (K-562; Homo sapiens, K562, K-562, Leukemia, read-out: Growth Inhibition GI50): 2.96 µM
GI50 (K-562; Homo sapiens, K562, K-562, Leukemia, read-out: Log10 GI50 (converted)): 2.95 µM
CC50 (K-562; Homo sapiens, K562, K-562, Leukemia, read-out: Log10 LC50 (converted)): > 100 µM
Log10 TGI50 (K-562; K-562, Leukemia): −5.06
GI50 (RPMI-8226; [6]): 1.39 µM
GI50 (RPMI-8226; [7]): 1.38 µM
CC50 (RPMI-8226; [8]): > 100 µM
Log10 TGI50 (RPMI-8226): −5.20
Log10 TGI50 (NCI-H226): −5.39
GI50 (NCI-H226; [6]): 1.99 µM
GI50 (NCI-H226; [7]): 2 µM
LC50 (NCI-H226; [8]): 8.51 µM
Log10 TGI50 (NCI-H23): −4.72
GI50 (NCI-H23; [6]): 3.9 µM
GI50 (NCI-H23; [7]): 3.89 µM
LC50 (NCI-H23; [8]): > 100 µM
Log10 TGI50 (HCT-116): −5.52
GI50 (HCT-116; [6]): 1.64 µM
GI50 (HCT-116; [7]): 1.62 µM
CC50 (HCT-116; [8]): 5.62 µM
Log10 TGI50 (KM12): −5.46
GI50 (KM12; [6]): 1.79 µM
GI50 (KM12; [7]): 1.78 µM
CC50 (KM12; [8]): 6.61 µM
GI50 (SW-620; [6]): 1.92 µM
GI50 (SW-620; [7]): 1.91 µM
CC50 (SW-620; [8]): 7.41 µM
Log10 TGI50 (SW-620): −5.42
Log10 TGI50 (LOX IMVI): −5.37
GI50 (LOX IMVI; [6]): 1.89 µM
GI50 (LOX IMVI; [7]): 1.91 µM
CC50 (LOX IMVI; [8]): 9.77 µM
Log10 TGI50 (M14): −5.37
GI50 (M14; [6]): 2.07 µM
GI50 (M14; [7]): 2.09 µM
CC50 (M14; [8]): 8.71 µM
GI50 (MDA-MB-435; [6]): 2.27 µM
GI50 (MDA-MB-435; [7]): 2.29 µM
CC50 (MDA-MB-435; [8]): > 100 µM
Log10 TGI50 (MDA-MB-435): −5.19
GI50 (SK-MEL-5; [6]): 1.49 µM
GI50 (SK-MEL-5; [7]): 1.48 µM
CC50 (SK-MEL-5; [8]): 5.5 µM
Log10 TGI50 (SK-MEL-5): −5.54
GI50 (UACC-62; [6]): 1.62 µM
GI50 (UACC-62; [7]): 1.62 µM
CC50 (UACC-62; [8]): 7.94 µM
Log10 TGI50 (UACC-62): −5.44
GI50 (OVCAR-3; [6]): 1.67 µM
GI50 (OVCAR-3; [7]): 1.66 µM
CC50 (OVCAR-3; [8]): 6.03 µM
Log10 TGI50 (OVCAR-3): −5.50
GI50 (OVCAR-8; [6]): 1.87 µM
GI50 (OVCAR-8; [7]): 1.86 µM
CC50 (OVCAR-8; [8]): 31.6 µM
Log10 TGI50 (OVCAR-8): −5.33
Log10 TGI50 (786-0): −5.43
GI50 (786-0; [6]): 2.06 µM
GI50 (786-0; [7]): 2.04 µM
CC50 (786-0; [8]): 6.61 µM
Log10 TGI50 (DU-145): −4.92
GI50 (DU-145; [6]): 3.76 µM
GI50 (DU-145; [7]): 3.72 µM
CC50 (DU-145; [8]): 38.9 µM
Log10 TGI50 (MCF7): −4.99
GI50 (MCF7; [6]): 2.49 µM
GI50 (MCF7; [7]): 2.51 µM
CC50 (MCF7; [8]): > 100 µM
Log10 TGI50 (HS578T): >−4.00
GI50 (HS578T; Homo sapiens, Hs-578T, read-out: Growth Inhibition GI50): 3.46 µM
GI50 (HS578T; Homo sapiens, Hs-578T, read-out: Log10 GI50 (converted)): 3.47 µM
CC50 (HS578T; Homo sapiens, Hs-578T, read-out: Log10 LC50 (converted)): > 100 µM
Log10 TGI50 (BT-549): −5.47
GI50 (BT-549; [6]): 1.71 µM
GI50 (BT-549; [7]): 1.7 µM
CC50 (BT-549; [8]): 6.61 µM
GI50 (MDA-MB-468; [6]): 1.51 µM
GI50 (MDA-MB-468; [7]): 1.51 µM
CC50 (MDA-MB-468; [8]): 8.71 µM
Log10 TGI50 (MDA-MB-468): −5.44
GI50 [1]: 0.45 to 2.43 µM
GI50 [2]: 2.06 to 3.26 µM
GI50 [3]: 2.6 to 3.69 µM
GI50 [4]: 0.51 to 4.97 µM
GI50 [5]: 2.35 to 7.45 µM
